Where two headings read alike, the source gives them in different places.
Target: T1, recombinant human cGAS (aa147-522) (Homo sapiens, UniProt Q8N884)
T1 construct: recombinant human cGAS (aa147-522); His6-SUMO (cleaved yes); made in house; host or cells: E. coli BL21/pLys
Test: In vitro inhibition assay of cGAS activity (ATP consumption, KinaseGlo Max)
Type: biochemical
Outline: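 De-tagged recombinant human cGAS (aa147-522, 1.5 μg/mL) was incubated 20 min at 37 °C with herring testis DNA, 6.6 μM ATP and 0.1 mM GTP in Tris pH 7.5/MgCl2 buffer plus serial compound dilutions. Remaining ATP was read by KinaseGlo Max luminescence, and IC50 was fitted from % ATP consumption versus log concentration.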

[1] = Table 2, read-out: cGAS Inhibition Results IC50
[2] = Table 3, read-out: cGAS Inhibition Results IC50

T1 sequence (Q8N884 147-522): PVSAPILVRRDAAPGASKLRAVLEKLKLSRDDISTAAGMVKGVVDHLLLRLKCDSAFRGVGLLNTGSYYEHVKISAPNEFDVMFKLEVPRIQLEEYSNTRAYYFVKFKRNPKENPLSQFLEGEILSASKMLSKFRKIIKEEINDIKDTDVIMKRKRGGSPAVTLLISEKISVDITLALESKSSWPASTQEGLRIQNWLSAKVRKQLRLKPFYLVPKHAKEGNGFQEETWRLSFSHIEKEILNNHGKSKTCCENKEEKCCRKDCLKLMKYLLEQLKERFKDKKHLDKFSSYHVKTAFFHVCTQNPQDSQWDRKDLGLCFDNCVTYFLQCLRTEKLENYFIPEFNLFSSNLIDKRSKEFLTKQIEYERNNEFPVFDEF

Row | SMILES | IC50 [1] [µM] | IC50 [2] [µM]
1 | FC(F)(F)c1cc(-n2ccnc2)c2ccc(Cl)cc2n1 [I-422] | > 30 | 
2 | O=C(O)/C=C/c1cc(-c2cn[nH]c2)c2ccc(Cl)c(Cl)c2n1 [I-423, 3-(7,8-dichloro-4-(1H-pyrazol-4-yl)quinolin-2-yl)acrylic acid] | < 2 | 
3 | Brc1ccc2c(-n3ccnc3)cc(-c3ccccc3)nc2c1 [I-424, 7-bromo-4-(1H-imidazol-1-yl)-2-phenylquinoline] | 2 to 30 | 
4 | Cn1cc(-c2cc(NCC(=O)O)c3ccc(Cl)c(Cl)c3n2)cn1 [I-425] | > 30 | 
5 | O=C(O)CNc1cc(-c2ccn[nH]2)nc2c(Cl)c(Cl)ccc12 [I-426] | > 30 | 
6 | COc1ccc(-c2cc(-c3cn[nH]c3)c3ccc(Cl)c(Cl)c3n2)cc1C(=O)O [I-427] | < 2 | 
7 | O=C(O)[C@@H]1C[C@@H](F)CN1c1cc(-c2cn[nH]c2)c2ccc(Cl)c(Cl)c2n1 [I-430] | < 2 | 
8 | O=C(O)[C@@H]1C[C@H](O)CN1c1cc(-c2cn[nH]c2)c2ccc(Cl)c(Cl)c2n1 [I-431] | < 2 | 
9 | COC(=O)[C@@H]1C[C@H](O)CN1c1cc(-c2cn[nH]c2)c2ccc(Cl)c(Cl)c2n1 [I-432] | 2 to 30 | 
10 | O=C(O)[C@@H]1C[C@@H](O)CN1c1cc(-c2cn[nH]c2)c2ccc(Cl)c(Cl)c2n1 [I-433] | < 2 | 
11 | COC(=O)[C@@H]1C[C@@H](O)CN1c1cc(-c2cn[nH]c2)c2ccc(Cl)c(Cl)c2n1 [I-434] | 2 to 30 | 
12 | C[C@@]1(C(=O)O)CCCN1c1cc(-n2ccnc2)c2ccc(Cl)c(Cl)c2n1 [I-436] | 2 to 30 | 
13 | CC(C)(C)O[C@@H]1C[C@@H](C(=O)O)N(c2cc(-c3cn[nH]c3)c3ccc(Cl)c(Cl)c3n2)C1 [I-437] | < 2 | 
14 | O=C(O)[C@@H]1C[C@@H](OCc2ccccc2)CN1c1cc(-c2cn[nH]c2)c2ccc(Cl)c(Cl)c2n1 [I-438] | 2 to 30 | 
15 | O=C(O)[C@@H]1C[C@@H](C2CCCCC2)CN1c1cc(-c2cn[nH]c2)c2ccc(Cl)c(Cl)c2n1 [I-439] | 2 to 30 | 
16 | O=C(O)C[C@@H]1CCCN1c1cc(-c2cn[nH]c2)c2ccc(Cl)c(Cl)c2n1 [I-444] | < 2 | 
17 | O=C(O)C1CCN(c2cc(-n3ccnc3)c3ccc(Cl)cc3n2)C1 (stereo not shown) [I-445] | 2 to 30 | 
18 | O=C(O)CC1CCN(c2cc(-n3ccnc3)c3ccc(Cl)cc3n2)C1 (stereo not shown) [I-446] | 2 to 30 | 
19 | CCOC(=O)C1CCN(c2cc(-n3ccnc3)c3ccc(Cl)cc3n2)C1 (stereo not shown) [I-447] | > 30 | 
20 | O=C(NO)[C@@H]1CCCN1c1cc(-n2ccnc2)c2ccc(Cl)c(Cl)c2n1 [I-449] | < 2 | 
21 | CNC(=O)[C@@H]1CCCN1c1cc(-n2ccnc2)c2ccc(Cl)c(Cl)c2n1 [I-450] | 2 to 30 | 
22 | CCNC(=O)[C@@H]1CCCN1c1cc(-n2ccnc2)c2ccc(Cl)c(Cl)c2n1 [I-451] | 2 to 30 | 
23 | O=C(NCCO)[C@@H]1CCCN1c1cc(-n2ccnc2)c2ccc(Cl)c(Cl)c2n1 [I-452] | 2 to 30 | 
24 | CN(C)C(=O)[C@@H]1CCCN1c1cc(-n2ccnc2)c2ccc(Cl)c(Cl)c2n1 [I-453] | > 30 | 
25 | O=C(C[C@@H]1CCCN1c1cc(-c2cn[nH]c2)c2ccc(Cl)c(Cl)c2n1)N1CCC[C@H]1CO [I-454] | < 2 | 

Row | SMILES | IC50 [1] [µM] | IC50 [2] [µM]
26 | O=C(O)[C@@H]1C[C@H](O)CN1c1cc(-n2ccnc2)c2ccc(Cl)c(Cl)c2n1 [I-455] |  | < 2
27 | C[C@]1(C(=O)O)CCCN1c1cc(-n2ccnc2)c2ccc(Cl)c(Cl)c2n1 [I-456] |  | > 30
28 | O=C(O)C1(c2ccccc2)CCCN1c1cc(-n2ccnc2)c2ccc(Cl)c(Cl)c2n1 (stereo not shown) [I-457] |  | 2 to 30
29 | COC(=O)c1cccn1-c1cc(-n2ccnc2)c2ccc(Cl)c(Cl)c2n1 [I-458] |  | 2 to 30
30 | COC(=O)[C@@H]1C[C@H](O)CN1c1cc(-n2ccnc2)c2ccc(Cl)c(Cl)c2n1 [I-459] |  | 2 to 30
31 | CCOC(=O)[C@@H]1CC[C@H](C)N1c1cc(-n2ccnc2)c2ccc(Cl)c(Cl)c2n1 [I-460] |  | 2 to 30
32 | COC(=O)[C@@H]1C[C@H](C(F)(F)F)CN1c1cc(-n2ccnc2)c2ccc(Cl)c(Cl)c2n1 [I-462] |  | 2 to 30
33 | COC[C@@H]1CC[C@@H](C(=O)O)N1c1cc(-n2ccnc2)c2ccc(Cl)c(Cl)c2n1 [I-463] |  | 2 to 30
34 | Clc1ccc2c(-n3ccnc3)cc(N3CCC(c4nn[nH]n4)C3)nc2c1Cl (stereo not shown) [I-464] |  | < 2
35 | Clc1ccc2c(-n3ccnc3)cc(N3CCC[C@H]3c3nn[nH]n3)nc2c1Cl [I-465] |  | < 2
36 | O=C(O)[C@@H]1C[C@H](F)CN1c1cc(-n2ccnc2)c2ccc(Cl)c(Cl)c2n1 [I-466] |  | < 2
37 | O=C(O)c1ccc(C2CCCN2c2cc(-n3ccnc3)c3ccc(Cl)c(Cl)c3n2)s1 (stereo not shown) [I-468] |  | 2 to 30
38 | COC(=O)[C@@H]1C[C@@H](O)CN1c1cc(-n2ccnc2)c2ccc(Cl)c(Cl)c2n1 [I-472] |  | 2 to 30
39 | O=C(O)C12CC(CN1c1cc(-n3ccnc3)c3ccc(Cl)c(Cl)c3n1)C2 [I-474] |  | 2 to 30
40 | CC12CN(c3cc(-n4ccnc4)c4ccc(Cl)c(Cl)c4n3)C(C(=O)O)(C1)C2 [I-475] |  | 2 to 30
41 | O=C(O)[C@@H]1Cc2ccccc2N1c1cc(-n2ccnc2)c2ccc(Cl)c(Cl)c2n1 [I-476] |  | 2 to 30
42 | CC1(C)C[C@@H](C(=O)O)N(c2cc(-n3ccnc3)c3ccc(Cl)c(Cl)c3n2)C1 [I-479] |  | < 2
43 | O=C(O)[C@@H]1[C@H]2C[C@H]2CN1c1cc(-n2ccnc2)c2ccc(Cl)c(Cl)c2n1 [I-480] |  | < 2
44 | C[C@@H]1C[C@@H](C(=O)O)N(c2cc(-n3ccnc3)c3ccc(Cl)c(Cl)c3n2)C1 [I-481] |  | < 2
45 | C[C@H]1CCN(c2cc(-n3ccnc3)c3ccc(Cl)c(Cl)c3n2)[C@@H]1C(=O)O [I-482] |  | < 2
46 | CC1(C)CCN(c2cc(-n3ccnc3)c3ccc(Cl)c(Cl)c3n2)C1C(=O)O (stereo not shown) [I-483] |  | 2 to 30
47 | CC(C)(O)[C@@H]1CCCN1c1cc(-n2ccnc2)c2ccc(Cl)c(Cl)c2n1 [I-484] |  | 2 to 30
48 | O=C(O)[C@@H]1CSCN1c1cc(-n2ccnc2)c2ccc(Cl)c(Cl)c2n1 [I-485] |  | < 2
49 | O=C(O)[C@@H]1SCCN1c1cc(-n2ccnc2)c2ccc(Cl)c(Cl)c2n1 [I-486] |  | < 2
50 | O=C(O)[C@@H]1CC[C@H](c2ccccc2)N1c1cc(-n2ccnc2)c2ccc(Cl)c(Cl)c2n1 [I-487] |  | < 2

Row | SMILES | IC50 [1] [µM] | IC50 [2] [µM]
51 | O=C1CC2CCC(C1)N2c1cc(-n2ccnc2)c2ccc(Cl)c(Cl)c2n1 [I-488] |  | < 2
52 | OC1CC2CCC(C1)N2c1cc(-n2ccnc2)c2ccc(Cl)c(Cl)c2n1 (stereo not shown) [I-489] |  | < 2
53 | OC1CC2CCC(C1)N2c1cc(-n2ccnc2)c2ccc(Cl)c(Cl)c2n1 (stereo not shown) [I-490] |  | < 2
54 | O=C1CC2CCCC(C1)N2c1cc(-n2ccnc2)c2ccc(Cl)c(Cl)c2n1 [I-491] |  | < 2
55 | OC1CC2CCCC(C1)N2c1cc(-n2ccnc2)c2ccc(Cl)c(Cl)c2n1 (stereo not shown) [I-492] |  | 2 to 30
56 | O=C(O)C1CC2CCC(C1)N2c1cc(-n2ccnc2)c2ccc(Cl)c(Cl)c2n1 (stereo not shown) [I-493] |  | < 2
57 | O=C(O)C1CC2CCC1N2c1cc(-n2ccnc2)c2ccc(Cl)c(Cl)c2n1 (stereo not shown) [I-494] |  | < 2
58 | N#C[C@@H]1CCCN1c1cc(-n2ccnc2)c2ccc(Cl)c(Cl)c2n1 [I-495] |  | < 2
59 | FC(F)(F)[C@@H]1CCCN1c1cc(-n2ccnc2)c2ccc(Cl)c(Cl)c2n1 [I-496] |  | 2 to 30
60 | COC(=O)[C@H]1[C@H](O)CCN1c1cc(-n2ccnc2)c2ccc(Cl)c(Cl)c2n1 [I-497] |  | 2 to 30
61 | O=C(O)[C@H]1[C@H](O)CCN1c1cc(-n2ccnc2)c2ccc(Cl)c(Cl)c2n1 [I-498] |  | 2 to 30
62 | O=C(O)[C@H]1[C@@H](O)CCN1c1cc(-n2ccnc2)c2ccc(Cl)c(Cl)c2n1 [I-499] |  | < 2
63 | COC(=O)[C@H]1[C@@H](O)CCN1c1cc(-n2ccnc2)c2ccc(Cl)c(Cl)c2n1 [I-500] |  | 2 to 30
64 | O[C@@H]1CN(c2cc(-n3ccnc3)c3ccc(Cl)c(Cl)c3n2)C[C@H]1O [I-501] |  | < 2
65 | NC(=O)[C@@H]1C[C@@H](O)CN1c1cc(-n2ccnc2)c2ccc(Cl)c(Cl)c2n1 [I-502] |  | 2 to 30
66 | O=C1NCC2CCC1N2c1cc(-n2ccnc2)c2ccc(Cl)c(Cl)c2n1 (stereo not shown) [I-503] |  | < 2
67 | OC[C@@H]1CC(F)(F)CN1c1cc(-n2ccnc2)c2ccc(Cl)c(Cl)c2n1 [I-504] |  | < 2
68 | O=C(O)C12CC1CCN2c1cc(-n2ccnc2)c2ccc(Cl)c(Cl)c2n1 (stereo not shown) [I-505] |  | 2 to 30
69 | O=C(O)c1cccn1-c1cc(-n2ccnc2)c2ccc(Cl)c(Cl)c2n1 [I-506] |  | 2 to 30
70 | O=C(O)[C@@H]1C[C@H](C(F)(F)F)CN1c1cc(-n2ccnc2)c2ccc(Cl)c(Cl)c2n1 [I-508] |  | < 2
71 | O=C(O)c1ccccc1S(=O)(=O)N[C@@H]1C[C@@H](C(=O)O)N(c2cc(-n3ccnc3)c3ccc(Cl)c(Cl)c3n2)C1 [I-509] |  | < 2
72 | O=C(O)c1cccc(S(=O)(=O)N[C@@H]2C[C@@H](C(=O)O)N(c3cc(-n4ccnc4)c4ccc(Cl)c(Cl)c4n3)C2)c1 [I-510] |  | < 2
73 | O=C(O)c1ccc(S(=O)(=O)N[C@@H]2C[C@@H](C(=O)O)N(c3cc(-n4ccnc4)c4ccc(Cl)c(Cl)c4n3)C2)cc1 [I-511] |  | < 2

Source: patent US11873291B2, “Quinoline cGAS antagonist compounds” (ImmuneSensor Therapeutics, Inc., priority 2020, dated 2024)
